Several values for one entry are separate records, joined by “and”; a condition that tells them apart may be missing. Equal values may be shown once. Read-outs that look alike come from different tables or passages of the source.
Legend:
[1] = parameters: method as in Koshimichi et al., J Pharm Sci 2019;108:1896–1904; details: Japanese patients, ref Koshimichi et al., J Pharm Sci 2019;108:1896–1904, cited from earlier work
[2] = Metabolic stability in liver microsomes, human; type: in vitro ADME; details: for % Residual in liver microsome: 0.5 mg/mL, 2 μmol/L, 37°C, mean of duplicates; for % Residual in liver microsome Individual value: duplicates
Experimental: (§1) Liver microsomes were prepared from ferrets, rats, dogs, and monkeys, as previously described. ^28 Human liver microsomes were obtained from Sekisui‐XenoTech, LLC and pooled (n = 15). Metabolic stability of the compounds in liver microsomes was tested in duplicate. Oseltamivir and cefcapene pivoxil were used as reference compounds. Liver microsomes at 0.5 mg/mL concentration (final volume of 0.2 mL) were incubated in Tris‐HCl buffer (pH 7.4), containing 50 mmol/L Tris‐HCl, 150 mmol/L KCl, 10 mmol/L MgCl2. The hydrolysis reaction was initiated by applying the test compound solution (final concentration 2 μmol/L). After incubation for 10, 20, and 30 minutes at 37°C, the hydrolysis was terminated by the addition of twofold volume of ice‐cold acetonitrile/methanol (1:1, v/v). Samples were centrifuged at 3000 rpm for 10 minutes prior to LC‐MS/MS analysis of compounds in the supernatants.

[3] = Metabolic stability in liver microsomes, rat; type: in vitro ADME; details: for % Residual in liver microsome: 0.5 mg/mL, 2 μmol/L, 37°C, mean of duplicates; for % Residual in liver microsome Individual value: duplicates
Experimental: as §1

[4] = Metabolic stability in liver microsomes, dog; type: in vitro ADME; details: for % Residual in liver microsome: 0.5 mg/mL, 2 μmol/L, 37°C, mean of duplicates; for % Residual in liver microsome Individual value: duplicates
Experimental: as §1

[5] = test system: Influenza A virus A/Kadoma/3/2006 (H1N1); test: Experiment 1: infected ferrets, treatment starting at Day 1 p.i. (virus titer in nasal washes, body temperature); type: in vivo, ferret; details: for reduction of virus titers by Day 2: treatment at Day 1 p.i.

## O=C1c2c(O)c(=O)ccn2N([C@@H]2c3ccccc3SCc3c2ccc(F)c3F)[C@@H]2COCCN12 [BXA, baloxavir acid]
[1]; BXM 10 mg
  plasma concentration at 24 hours: 15.1 (range 6.38‐29.0) ng/mL
[1]; BXM 40 mg
  plasma concentration at 24 hours: 61.5 (range 27.9‐118) ng/mL

## COC(=O)OCOc1c2n(ccc1=O)N([C@@H]1c3ccccc3SCc3c1ccc(F)c3F)[C@@H]1COCCN1C2=O [BXM, Baloxavir marboxil]
[2]; 10 min
  % Residual in liver microsome: 8.2%
[2]; 20 min
  % Residual in liver microsome: 0.3%
[2]; 30 min
  % Residual in liver microsome: 0.0%
[2]; 10 minutes
  % Residual in liver microsome Individual value: 8.4% and 8.0%
[2]; 20 minutes
  % Residual in liver microsome Individual value: 0.3% and 0.2%
[2]; 30 minutes
  % Residual in liver microsome Individual value: 0.0%
[3]; 10 min
  % Residual in liver microsome: 25.3%
[3]; 20 min
  % Residual in liver microsome: 4.6%
[3]; 30 min
  % Residual in liver microsome: 0.6%
[3]; 10 minutes
  % Residual in liver microsome Individual value: 25.3% and 25.2%
[3]; 20 minutes
  % Residual in liver microsome Individual value: 4.9% and 4.4%
[3]; 30 minutes
  % Residual in liver microsome Individual value: 0.7% and 0.5%
[4]; 10 min
  % Residual in liver microsome: 0.1%
[4]; 20 min
  % Residual in liver microsome: 0.1%
[4]; 30 min
  % Residual in liver microsome: 0.0%
[4]; 10 minutes
  % Residual in liver microsome Individual value: 0.1%
[4]; 20 minutes
  % Residual in liver microsome Individual value: 0.1%
[4]; 30 minutes
  % Residual in liver microsome Individual value: 0.0% and 0.1%
[5]; BXM 10 mg/kg twice daily
  reduction of virus titers by Day 2: ≥ 3 log10 of the 50% tissue culture infective doses
[5]; BXM 30 mg/kg twice daily
  reduction of virus titers by Day 2: ≥ 3 log10 of the 50% tissue culture infective doses
[5]; Day 2 p.i., BXM 30 mg/kg twice daily for 1 day from Day 1 p.i., undetectable level
  virus titer in nasal washes: < 0.5 log10 TCID50/mL

From paper PMC7578299, “The antiviral effects of baloxavir marboxil against influenza A virus infection in ferrets” (Influenza and Other Respiratory Viruses, 2020)
